Patent US6645976B1 (Eli Lilly and Company, priority 1994, dated 2003)

target: T1, recombinant human secreted phospholipase A2 (Homo sapiens, UniProt P14555); assay: sPLA2 Chromogenic Assay (Assay 1); assay type: biochemical; details: diheptanoyl thio-PC substrate, pH 7.5, 40° C. for 30 minutes, absorbance at 405 nanometers
T1 sequence (P14555 21-144): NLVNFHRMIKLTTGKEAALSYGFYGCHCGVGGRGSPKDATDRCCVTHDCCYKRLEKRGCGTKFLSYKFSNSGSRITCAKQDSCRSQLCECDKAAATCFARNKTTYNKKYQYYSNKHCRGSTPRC

Row | SMILES | IC50 [µM]
1 | CCc1c(C(=O)C(N)=O)c2c(OCC(=O)OC(C)C(=O)OC3CCCCC3)cccn2c1Cc1ccccc1-c1ccccc1 (stereo not drawn) [Compound 59e] | 0.055
2 | Cc1c(C(=O)C(N)=O)c2c(OCC(=O)O)cccn2c1Cc1ccccc1 [Compound 40g, (3-Benzyl-8-(carboxymethyloxy)-2-methylindolizin-1-yl)glyoxylamide] | 0.008
3 | CCc1c(C(=O)C(=O)NC)c2c(OCC(=O)O)cccn2c1Cc1ccccc1 [Compound 40b, (3-Benzyl-8-(carboxymethyloxy)-2-ethylindolizin-1-yl)glyoxyl-N-methylamide, reference compound] | > 50
4 | CCc1c(C(=O)C(N)=O)c2c(OCC(=O)O)cccn2c1Cc1ccccc1 [Compound 40a, (3-Benzyl-8-(carboxymethyloxy)-2-ethylindolizin-1-yl)glyoxylamide] | 0.008
5 | CCc1c(CC(N)=O)c2c(OCC(=O)O)cccn2c1Cc1cccc(Cl)c1 [Compound 22y, 2-(8-(Carboxymethyloxy)-3-(m-chlorobenzyl)-2-ethylindolizin-1-yl)acetamide] | 0.015
6 | CCc1c(CC(N)=O)c2c(O)cccn2c1Cc1ccccc1-c1ccccc1 [Compound 20x, 2-(2-Ethyl-8-hydroxy-3-(o-phenylbenzyl)-indolizin-1-yl)acetamide] | 0.84
7 | CCc1c(C(=O)C(=O)N(C)C)c2c(OCC(=O)O)cccn2c1Cc1ccccc1 [Compound 40c, (3-Benzyl-8-(carboxymethyloxy)-2-ethylindolizin-1-yl)glyoxyl-N,N-dimethylamide, reference compound] | > 50
8 | CSc1c(C(=O)C(N)=O)c2c(OCC(=O)O)cccn2c1Cc1ccccc1-c1ccccc1 [Compound 83, 2-(8-(Carboxymethyloxy)-2-methylthio-3-(o-phenylbenzyl)indolizin-lyl)-glyoxylamide] | 0.016
9 | CCc1c(CC(N)=O)c2c(OCC(=O)OCc3ccccc3)cccn2c1Cc1ccccc1-c1ccccc1 [Compound 21x, 2-(8-(Benzyloxycarbonylmethyloxy)-2-ethyl-3-(o-phenylbenzyl)indolizin-1-yl)acetamide] | 0.14
10 | COC(=O)COc1cccn2c(Cc3ccccc3-c3ccccc3)c(SC)c(C(=O)C(N)=O)c12 [Compound 82, 2-(8-(Carbomethoxymethyloxy)-2-methylthio-3-(o-phenylbenzyl)indolizin-1-yl)glyoxylamide] | 0.12
11 | CCc1c(C(=O)C(N)=O)c2c(OCc3nnnn3C(c3ccccc3)(c3ccccc3)c3ccccc3)cccn2c1Cc1ccccc1-c1ccccc1 [Compound 59l, 2-(3-(Biphenyl-2-yl-methyl)-2-ethyl-8-(1-tritytretrazol(-5-yl)methyloxy)indolizine-1-yl)glyoxylamide] | 0.11

Continued, values first:

Row | IC50 [µM] | SMILES
12 | 0.24 | CCc1c(C(=O)C(N)=O)c2cc(OCCC(=O)O)ccn2c1Cc1ccccc1-c1ccccc1 [Compound 70b]
13 | 0.011 | CCc1c(C(=O)C(N)=O)c2c(OCC(=O)O)cccn2c1Cc1cccs1 [Compound 52k, 2-(8-(Carboxymethyloxy)-2-ethyl-3-(thiophen-2-ylmethyl)indolizin-1-yl)glyoxylamide]
14 | 0.051 | CCc1c(C(=O)C(N)=O)c2c(OCC(=O)O)cccn2c1CCc1ccccc1 [Compound 52i, 2-(8-(Carboxymethyoxy)-2-ethyl-3-(2-phenylethyl)indolizin-1-yl)glyoxylamide]
15 | 0.029 | NC(=O)C(=O)c1c(C2CC2)c(CC2CCCC2)n2cccc(OCC(=O)O)c12 [Compound 52v, 2-(8-(Carboxymethyloxy)-3-cyclopentylmethyl-2-cyclopropylindolizin-1-yl)glyoxylamide]
16 | 0.046 | NC(=O)C(=O)c1c(C2CC2)c(Cc2ccccc2)n2cccc(OCC(=O)O)c12 [Compound 52r, 2-(3-Benzyl-8-carboxymethyloxy-2-cyclopropylindolizin-1-yl)-glyoxylamide]
17 | 0.008 | Cc1c(C(=O)C(N)=O)c2c(OCC(=O)O)cccn2c1Cc1ccccc1-c1ccccc1 [Compound 58a, 2-(3-(Biphenyl-2-ylmethyl)-8-carboxymethoxyl-2-methylindolizin-1-yl)glyoxylamide]
18 | 0.2 | CCc1c(C(=O)C(N)=O)c2cc(OCCCC(=O)O)ccn2c1Cc1ccccc1 [Compound 67a, 2-(3-Benzyl-7-(3-carboxylpropyloxy)-2-ethylindolizin-1-yl)glyoxylamide]
19 | 0.036 | CCc1c(C(=O)C(N)=O)c2c(OCC(=O)O)cccn2c1Cc1ccccc1[N+](=O)[O-] [Compound 52n, 2-(2-Ethyl-8-(carboxymethyloxy)-3-(o-nitrobenzyl)indolizine-1-yl)glyoxylamide]
20 | 0.014 | Cc1c(C(=O)C(N)=O)c2c(OCC(=O)O)cccn2c1CC1CCCC1 [Compound 52w, 2-(8-(Carboxymethyloxy)-3-cyclopentylmethyl-2-methylindolizin-1-yl)glyoxylamide]
21 | 0.006 | CCc1c(C(=O)C(N)=O)c2c(OCC(=O)O)cccn2c1Cc1ccccc1Cc1ccccc1 [Compound 52j, 2-(8-(Carboxymethyloxy)-3-o-benzylbenzyl-2-ethylindolizin-1-yl)glyoxylamide]
22 | 0.011 | CCc1c(C(=O)C(N)=O)c2c(OCC(=O)OC(C)OC(=O)OC)cccn2c1Cc1ccccc1-c1ccccc1 (stereo not drawn) [Compound 59b, 2-(3-Biphenyl-2-ylmethyl-8-(1-methoxycarbonyloxyethoxycarbonylmethoxy)-2-ethylindolizin-1-yl)glyoxylamide]
23 | 0.061 | CCc1c(C(=O)C(N)=O)c2c(OCC(=O)OCCC(=O)OC3(C)CCCC3)cccn2c1Cc1ccccc1-c1ccccc1 [Compound 59h, 2-(3-Biphenyl-2-ylmethyl-2-ethyl-8-(1-methylcyclopentyloxycarbonylethyloxycarbonyl-methyloxy)-indolizin-1-yl)glyoxylamide]
24 | 0.035 | CC(C)c1c(C(=O)C(N)=O)c2c(OCC(=O)O)cccn2c1Cc1ccccc1-c1ccccc1 [Compound 58c]
25 | 0.023 | CCc1c(C(=O)C(N)=O)c2c(OCC(=O)O)cccn2c1CC1CCCCCC1 [Compound 52d, 2-(8-Carboxymethyloxy-3-cycloheptylmethyl-2-ethylindolizin-1-yl)glyoxylamide]
26 | 0.021 | CCc1c(C(=O)C(N)=O)c2c(OCC(=O)O)cccn2c1CC1CCCCC1 [Compound 52b, 2-(8-Carboxymethyloxy-3-cyclohexylmethyl-2-ethylindolizin-1-yl)glyoxylamide]
27 | 0.14 | CCc1c(C(=O)C(N)=O)c2cc(OCCCC(=O)O)ccn2c1Cc1ccccc1-c1ccccc1 [Compound 67c, 2-(7-(3-Carboxypropyloxy)-2-ethyl-3-(o-phenylbenzyl)indolizin-1-yl)glyoxylamide]
28 | 0.025 | CCCCCC1CCC(Cc2c(CC)c(C(=O)C(N)=O)c3c(OCC(=O)O)cccn23)CC1 (stereo not drawn) [Compound 52o, 2-(8-(Carboxymethyloxy)-2-ethyl-3-(4-n-pentylcyclohexylmethyl)indolizin-1-yl)glyoxylamide]
29 | 0.08 | CCc1c(C(=O)C(N)=O)c2c(OCC(=O)OC)cccn2c1Cc1cccc(-c2ccccc2)c1 [Compound 57g, 2-(8-Carbomethoxymethyloxy-2-ethyl-3-(m-phenylbenzyl)indlolin-1-yl)glyoxylamide]
30 | 0.062 | CCCCCc1c(CC)c(C(=O)C(N)=O)c2c(OCC(=O)O)cccn12 [Compound 52e, 2-(8-Carboxymethyloxy-2-ethyl-3-pentylindolizin-1-yl)glyoxylamide]
